According to patent publication US8410117B2, “Imidazopyrimidine derivatives” (Hoffmann-La Roche Inc., priority 2010, dated 2013):
pIC50: −log10 of the molar value.

target: T1, human PDE10A (Homo sapiens, UniProt Q9Y233); test: human PDE10A full length Scintillation Proximity Assay (SPA); format: biochemical; conditions: 50 nM cGMP and 50 nM [3H]-cGMP, 20 minutes at room temperature; read-out: PDE10A inhibition IC50
T1 construct: The human PDE10A full length assay; purchased Enzo Life Science, Lausen, Switzerland SE-534
Protocol: The following test was carried out in order to determine the activity of the compounds of the present invention. PDE10 activity of the compounds of the present invention was determined using a Scintillation Proximity Assay (SPA)-based method similar to the one previously described (Fawcett, L. et al., Proc Natl Acad Sci USA (2000) 97(7):3702-3707).
The human PDE10A full length assay was performed in 96-well micro titer plates. The reaction mixture of 50 μl contained 20 mM HEPES pH=7.5/10 mM MgCl2/0.05 mg/ml BSA (Sigma cat. #A-7906), 50 nM cGMP (Sigma, cat. #G6129) and 50 nM [^3H]-cGMP (GE Healthcare, cat. #TRK392 S.A. 13.2 Ci/mmol), 3.75 ng/well PDE10A enzyme (Enzo Life Science, Lausen, Switzerland cat #SE-534) with or without a specific test compound. A range of concentrations of the potential inhibitor was used to generate data for calculating the concentration of inhibitor resulting in 50% of the effect (e.g. IC50, the concentration of the competitor inhibiting PDE10A activity by 50%). Non-specific activity was tested without the enzyme. The reaction was initiated by the addition of the substrate solution (cGMP and [^3H]-cGMP) and allowed to progress for 20 minutes at room temperature. The reaction was terminated by adding 25 μl of YSi-SPA scintillation beads (GE Healthcare, cat. #RPNQ0150) in 18 mM zinc sulphate solution (stop reagent). After 1 h under shaking, the plate was centrifuged one minute at 170 g to allow beads to settle. Afterwards, radioactive counts were measured on a Perkin Elmer TopCount Scintillation plate reader.

T1 sequence (Q9Y233 1-779 isoform Q9Y233-1): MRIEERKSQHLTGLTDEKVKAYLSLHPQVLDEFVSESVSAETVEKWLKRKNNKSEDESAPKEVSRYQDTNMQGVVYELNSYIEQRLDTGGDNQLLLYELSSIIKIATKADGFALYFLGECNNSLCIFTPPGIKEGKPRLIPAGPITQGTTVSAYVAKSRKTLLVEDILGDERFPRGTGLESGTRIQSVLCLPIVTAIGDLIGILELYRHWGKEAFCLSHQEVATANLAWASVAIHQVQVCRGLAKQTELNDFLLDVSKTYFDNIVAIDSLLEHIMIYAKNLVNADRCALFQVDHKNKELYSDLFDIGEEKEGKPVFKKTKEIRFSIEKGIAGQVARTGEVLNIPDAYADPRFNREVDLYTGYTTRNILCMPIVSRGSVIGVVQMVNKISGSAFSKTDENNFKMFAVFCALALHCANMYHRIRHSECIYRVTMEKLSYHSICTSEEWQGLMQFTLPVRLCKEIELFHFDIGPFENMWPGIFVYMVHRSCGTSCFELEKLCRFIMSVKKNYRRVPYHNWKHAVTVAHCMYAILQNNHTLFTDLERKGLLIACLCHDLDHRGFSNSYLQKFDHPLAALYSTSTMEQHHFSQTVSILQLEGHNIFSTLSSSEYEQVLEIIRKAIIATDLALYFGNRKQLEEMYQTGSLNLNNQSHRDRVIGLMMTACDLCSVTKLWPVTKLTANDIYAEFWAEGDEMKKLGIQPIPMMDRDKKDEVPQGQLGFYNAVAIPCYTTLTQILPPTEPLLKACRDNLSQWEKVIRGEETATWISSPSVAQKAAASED

Going from CCN(C)C(=O)c1cnn(CC)c1C(=O)Nc1ccn2cc(-c3ccccc3)nc2n1 [Example 73, 2-Ethyl-2H-pyrazole-3,4-dicarboxylic acid 4-(ethyl-methyl-amide) 3-[(2-phenyl-imidazo[1,2-a]pyrimidin-7-yl)-amide]] to CN(CCF)C(=O)c1cnn(C)c1C(=O)Nc1ccn2cc(-c3ccccc3)nc2n1 [Example 95, 2-Methyl-2H-pyrazole-3,4-dicarboxylic acid 4-[(2-fluoro-ethyl)-methyl-amide]3-[(2-phenyl-imidazo[1,2-a]pyrimidin-7-yl)-amide]], the pIC50 falls from 8.55 to 7.91 (0.64 log units). The first is the more potent here.

Cn1ncc(C(=O)N2CCC2)c1C(=O)Nc1ccn2cc(-c3ccc(Cl)s3)nc2n1 [Example 74, 4-(Azetidine-1-carbonyl)-2-methyl-2H-pyrazole-3-carboxylic acid [2-(5-chloro-thiophen-2-yl)-imidazo[1,2-a]pyrimidin-7-yl]-amide] and Cn1ncc(C(=O)N2CCC2)c1C(=O)Nc1ccn2cc(-c3cccc(O)c3)nc2n1 [Example 83, 4-(Azetidine-1-carbonyl)-2-methyl-2H-pyrazole-3-carboxylic acid [2-(3-hydroxy-phenyl)-imidazo[1,2-a]pyrimidin-7-yl]-amide] are within 0.2 log units of each other in pIC50: 8.40 for the first, 8.47 for the second.

CN(C)C(=O)c1cnn(C)c1C(=O)Nc1ccn2cc(-c3ccccc3)nc2n1 [Example 75, 2-Methyl-2H-pyrazole-3,4-dicarboxylic acid 4-dimethylamide 3-[(2-phenyl-imidazo[1,2-a]pyrimidin-7-yl)-amide]] and CN(C)C(=O)c1cnn(C)c1C(=O)Nc1ccn2cc(-c3cccc(O)c3)nc2n1 [Example 84, 2-Methyl-2H-pyrazole-3,4-dicarboxylic acid 4-dimethylamide 3-{[2-(3-hydroxy-phenyl)-imidazo[1,2-a]pyrimidin-7-yl]-amide}] are within 0.2 log units of each other in pIC50: 8.31 for the first, 8.42 for the second.

O=C(Nc1ccn2cc(-c3ccccc3)nc2n1)c1nc(C2CC2)ccc1Nc1cncnc1 [Example 77, 6-Cyclopropyl-3-(pyrimidin-5-ylamino)-pyridine-2-carboxylic acid (2-phenyl-imidazo[1,2-a]pyrimidin-7-yl)-amide] and Cn1ncc(C(=O)N2CC(F)C2)c1C(=O)Nc1ccn2cc(-c3cccc(F)c3)nc2n1 [Example 92, 4-(3-Fluoro-azetidine-1-carbonyl)-2-methyl-2H-pyrazole-3-carboxylic acid [2-(3-fluoro-phenyl)-imidazo[1,2-a]pyrimidin-7-yl]-amide] are within 0.2 log units of each other in pIC50: 8.20 for the first, 8.19 for the second.

Going from Cn1ncc(C(=O)N2CCC2)c1C(=O)Nc1ccn2cc(-c3cccc(OCF)c3)nc2n1 [Example 82, 4-(Azetidine-1-carbonyl)-N-(2-(3-(fluoromethoxy)phenyl)imidazo[1,2-a]pyrimidin-7-yl)-1-methyl-1H-pyrazole-5-carboxamide] to Cn1ncc(C(=O)N2CCC2)c1C(=O)Nc1ccn2cc(-c3cccc(OCCF)c3)nc2n1 [Example 103, 4-(Azetidine-1-carbonyl)-2-methyl-2H-pyrazole-3-carboxylic acid {2-[3-(2-fluoro-ethoxy)-phenyl]imidazo[1,2-a]pyrimidin-7-yl}-amide], the pIC50 falls from 8.47 to 7.54 (0.93 log units).

COc1cccc(-c2cn3ccc(NC(=O)c4c(C(=O)N(C)C)cnn4C)nc3n2)c1 [Example 85, 2-Methyl-2H-pyrazole-3,4-dicarboxylic acid 4-dimethylamide 3-{[2-(3-methoxy-phenyl)-imidazo[1,2-a]pyrimidin-7-yl]-amide}] and CCN(C)C(=O)c1cnn(C)c1C(=O)Nc1ccn2cc(-c3cccc(OC)c3)nc2n1 [Example 87, N-4-ethyl-N5-(2-(3-methoxyphenyl)imidazo[1,2-a]pyrimidin-7-yl)-N-4,1-dimethyl-1H-pyrazole-4,5-dicarboxamide] are within 0.2 log units of each other in pIC50: 8.40 for the first, 8.26 for the second.

CCN(C)C(=O)c1cnn(C)c1C(=O)Nc1ccn2cc(-c3cccc(OCF)c3)nc2n1 [Example 86, N-4-Ethyl-N5-(2-(3-(fluoromethoxy)phenyl)imidazo[1,2-a]pyrimidin-7-yl)-N4,1-dimethyl-1H-pyrazole-4,5-dicarboxamide] and CCN(C)C(=O)c1cnn(C)c1C(=O)Nc1ccn2cc(-c3cccc(OCCF)c3)nc2n1 [Example 89, 2-Methyl-2H-pyrazole-3,4-dicarboxylic acid 4-(ethyl-methyl-amide) 3-({2-[3-(2-fluoro-ethoxy)-phenyl]imidazo[1,2-a]pyrimidin-7-yl}-amide)] are within 0.2 log units of each other in pIC50: 8.28 for the first, 8.21 for the second.

Going from CN(C)C(=O)c1cnn(C)c1C(=O)Nc1ccn2cc(-c3cccc(OCF)c3)nc2n1 [Example 88, 2-Methyl-2H-pyrazole-3,4-dicarboxylic acid 4-dimethylamide 3-{[2-(3-fluoromethoxy-phenyl)-imidazo[1,2-a]pyrimidin-7-yl]-amide}] to CN(C)C(=O)c1cnn(C)c1C(=O)Nc1ccn2cc(-c3cccc(OCCF)c3)nc2n1 [Example 102, 2-Methyl-2H-pyrazole-3,4-dicarboxylic acid 4-dimethylamide 3-({2-[3-(2-fluoro-ethoxy)-phenyl]-imidazo[1,2-a]pyrimidin-7-yl}-amide)], the pIC50 falls from 8.24 to 7.55 (0.69 log units).

First: Cn1ncc(C(=O)N2CC(F)C2)c1C(=O)Nc1ccn2cc(-c3cccc(OCCF)c3)nc2n1 [Example 90, 4-(3-Fluoro-azetidine-1-carbonyl)-2-methyl-2H-pyrazole-3-carboxylic acid {2-[3-(2-fluoro-ethoxy)-phenyl]imidazo[1,2-a]pyrimidin-7-yl}-amide]
Second: COc1cccc(-c2cn3ccc(NC(=O)c4c(C(=O)N5CC(F)C5)cnn4C)nc3n2)c1 [Example 98, 4-(3-Fluoro-azetidine-1-carbonyl)-2-methyl-2H-pyrazole-3-carboxylic acid [2-(3-methoxy-phenyl)-imidazo[1,2-a]pyrimidin-7-yl]-amide]
The pIC50 of the first is 0.38 log units higher: 8.21 for the first, 7.83 for the second. The first is the more potent here.

First: Cn1ncc(C(=O)N2CCC2)c1C(=O)Nc1ccn2cc(-c3cccc(F)c3)nc2n1 [Example 91, 4-(Azetidine-1-carbonyl)-2-methyl-2H-pyrazole-3-carboxylic acid [2-(3-fluoro-phenyl)-imidazo[1,2-a]pyrimidin-7-yl]-amide]
Second: CC(=O)Oc1cccc(-c2cn3ccc(NC(=O)c4c(C(=O)N5CCC5)cnn4C)nc3n2)c1 [Example 105, 3-(7-(4-(azetidine-1-carbonyl)-1-methyl-1H-pyrazole-5-carboxamido)imidazo[1,2-a]pyrimidin-2-yl)phenyl acetate]
The pIC50 of the first is 0.77 log units higher: 8.21 for the first, 7.44 for the second. The first is the more potent here.

CC(=O)Oc1cccc(-c2cn3ccc(NC(=O)c4c(C(=O)N(C)C)cnn4C)nc3n2)c1 [Example 93, 3-(7-(4-(dimethylcarbamoyl)-1-methyl-1H-pyrazole-5-carboxamido)imidazo[1,2-a]pyrimidin-2-yl)phenyl acetate] and CN(C)C(=O)c1cnn(C)c1C(=O)Nc1ccn2cc(-c3cccc(F)c3)nc2n1 [Example 94, 2-Methyl-2H-pyrazole-3,4-dicarboxylic acid 4-dimethylamide 3-{[2-(3-fluoro-phenyl)-imidazo[1,2-a]pyrimidin-7-yl]amide}] are within 0.2 log units of each other in pIC50: 8.08 for the first, 7.95 for the second.

COCCN(C)C(=O)c1cnn(C)c1C(=O)Nc1ccn2cc(-c3cccc(OCCF)c3)nc2n1 [Example 96, 2-Methyl-2H-pyrazole-3,4-dicarboxylic acid 3-({2-[3-(2-fluoro-ethoxy)-phenyl]-imidazo[1,2-a]pyrimidin-7-yl}-amide) 4-[(2-methoxy-ethyl)-methyl-amide]] and COCCN(C)C(=O)c1cnn(C)c1C(=O)Nc1ccn2cc(-c3cccc(OCF)c3)nc2n1 [Example 99, 2-Methyl-2H-pyrazole-3,4-dicarboxylic acid 3-{[2-(3-fluoromethoxy-phenyl)-imidazo[1,2-a]pyrimidin-7-yl]-amide}-4-[(2-methoxy-ethyl)-methyl-amide]] are within 0.2 log units of each other in pIC50: 7.90 for the first, 7.72 for the second.

Going from CCN(C)C(=O)c1cnn(C)c1C(=O)Nc1ccn2cc(-c3cccc(F)c3)nc2n1 [Example 97, 2-Methyl-2H-pyrazole-3,4-dicarboxylic acid 4-(ethyl-methyl-amide) 3-{[2-(3-fluoro-phenyl)-imidazo[1,2-a]pyrimidin-7-yl]-amide}] to CN(CCF)C(=O)c1cnn(C)c1C(=O)Nc1ccn2cc(-c3cccc(F)c3)nc2n1 [Example 104, 2-Methyl-2H-pyrazole-3,4-dicarboxylic acid 4-[(2-fluoro-ethyl)-methyl-amide]3-{[2-(3-fluoro-phenyl)-imidazo[1,2-a]pyrimidin-7-yl]-amide}], the pIC50 falls from 7.83 to 7.53 (0.30 log units).

CCN(C)C(=O)c1cnn(C)c1C(=O)Nc1ccn2cc(-c3cccc(OCC(=O)OC)c3)nc2n1 [Example 100, [3-(7-{[4-(Ethyl-methyl-carbamoyl)-2-methyl-2H-pyrazole-3-carbonyl]-amino}-imidazo[1,2-a]pyrimidin-2-yl)-phenoxy]-acetic acid methyl ester] and COCCN(C)C(=O)c1cnn(C)c1C(=O)Nc1ccn2cc(-c3cccc(OC)c3)nc2n1 [Example 101, 2-Methyl-2H-pyrazole-3,4-dicarboxylic acid 4-[(2-methoxy-ethyl)-methyl-amide]3-{[2-(3-methoxy-phenyl)-imidazo[1,2-a]pyrimidin-7-yl]amide}] are the same in pIC50: 7.66 for the first, 7.66 for the second.
